ChEMBL document CHEMBL1122012, “Adenosine receptors: targets for future drugs” (J Med Chem, 1982)
Activity calls are given as the source filed them. The rule behind the calls is not given here.

Experiments:
[1] = target: T1, Adenosine receptor A1 (Bos taurus, UniProt P28190)
T1 sequence (P28190 whole entry): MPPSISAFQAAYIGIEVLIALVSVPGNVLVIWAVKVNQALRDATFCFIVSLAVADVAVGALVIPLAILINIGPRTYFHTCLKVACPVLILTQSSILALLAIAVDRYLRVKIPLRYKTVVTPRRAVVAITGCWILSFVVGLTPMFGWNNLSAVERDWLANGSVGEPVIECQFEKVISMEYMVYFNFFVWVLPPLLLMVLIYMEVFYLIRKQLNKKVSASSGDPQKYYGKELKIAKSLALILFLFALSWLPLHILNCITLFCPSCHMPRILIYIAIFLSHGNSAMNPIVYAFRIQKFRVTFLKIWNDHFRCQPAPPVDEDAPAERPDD

[2] = target: T2, Adenosine receptor A1 (Homo sapiens) (UniProt P30542); conditions: brain
T2 sequence (whole entry): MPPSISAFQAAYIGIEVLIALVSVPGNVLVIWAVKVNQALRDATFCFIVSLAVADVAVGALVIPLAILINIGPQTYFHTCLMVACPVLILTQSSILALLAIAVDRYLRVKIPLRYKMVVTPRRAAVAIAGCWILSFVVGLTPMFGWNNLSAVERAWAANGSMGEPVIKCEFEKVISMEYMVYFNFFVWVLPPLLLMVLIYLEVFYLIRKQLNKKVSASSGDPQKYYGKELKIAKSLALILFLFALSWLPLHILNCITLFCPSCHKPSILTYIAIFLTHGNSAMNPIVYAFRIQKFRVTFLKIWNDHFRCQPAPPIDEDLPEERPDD

[3] = target: T3, Adenosine A2 receptor (Homo sapiens) (UniProt P29275+P29274); conditions: brain
[4] = target: T4, Adenosine receptor (Homo sapiens) (UniProt P30542+P29275+P0DMS8+P29274)
T4 sequence (P0DMS8 whole entry, looked up, one chain of several): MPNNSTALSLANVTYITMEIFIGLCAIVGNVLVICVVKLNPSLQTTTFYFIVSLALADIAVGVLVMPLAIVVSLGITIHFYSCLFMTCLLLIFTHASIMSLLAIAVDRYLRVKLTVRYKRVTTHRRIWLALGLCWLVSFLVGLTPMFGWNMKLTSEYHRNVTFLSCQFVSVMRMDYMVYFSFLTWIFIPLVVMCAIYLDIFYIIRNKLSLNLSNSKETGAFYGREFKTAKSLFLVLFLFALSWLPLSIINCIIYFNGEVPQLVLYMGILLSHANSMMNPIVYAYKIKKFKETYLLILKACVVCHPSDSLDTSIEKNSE
T4 sequence (P29274 whole entry, looked up, one chain of several): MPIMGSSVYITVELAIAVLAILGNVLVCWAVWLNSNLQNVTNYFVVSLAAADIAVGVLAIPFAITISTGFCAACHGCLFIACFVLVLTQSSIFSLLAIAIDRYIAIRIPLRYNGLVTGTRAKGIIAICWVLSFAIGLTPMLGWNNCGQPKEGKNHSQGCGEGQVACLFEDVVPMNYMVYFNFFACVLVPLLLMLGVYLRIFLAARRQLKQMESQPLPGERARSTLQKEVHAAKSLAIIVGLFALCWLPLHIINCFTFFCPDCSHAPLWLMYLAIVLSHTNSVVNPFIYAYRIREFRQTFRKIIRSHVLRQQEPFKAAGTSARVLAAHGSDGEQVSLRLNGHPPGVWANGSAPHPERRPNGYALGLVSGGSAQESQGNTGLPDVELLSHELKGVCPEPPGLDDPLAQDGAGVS
T4 sequence (P29275 whole entry, looked up, one chain of several): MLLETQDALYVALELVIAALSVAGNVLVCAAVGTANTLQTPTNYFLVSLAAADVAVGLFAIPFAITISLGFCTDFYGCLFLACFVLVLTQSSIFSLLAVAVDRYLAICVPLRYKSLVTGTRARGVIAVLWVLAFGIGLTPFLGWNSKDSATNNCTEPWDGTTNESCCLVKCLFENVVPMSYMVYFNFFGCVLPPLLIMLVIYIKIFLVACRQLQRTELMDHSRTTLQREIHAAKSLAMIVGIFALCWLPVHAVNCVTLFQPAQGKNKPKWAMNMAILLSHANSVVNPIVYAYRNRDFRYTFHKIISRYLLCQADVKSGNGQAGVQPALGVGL

[5] = target: T4, Adenosine receptor (Homo sapiens); remark: listed apart in the source
[6] = target: T3, Adenosine A2 receptor (Homo sapiens); conditions: brain; remark: listed apart in the source
[7] = target: T5, Adenosine receptor A2a (Cavia porcellus, UniProt P46616); assay: biochemical
T5 sequence (P46616 whole entry): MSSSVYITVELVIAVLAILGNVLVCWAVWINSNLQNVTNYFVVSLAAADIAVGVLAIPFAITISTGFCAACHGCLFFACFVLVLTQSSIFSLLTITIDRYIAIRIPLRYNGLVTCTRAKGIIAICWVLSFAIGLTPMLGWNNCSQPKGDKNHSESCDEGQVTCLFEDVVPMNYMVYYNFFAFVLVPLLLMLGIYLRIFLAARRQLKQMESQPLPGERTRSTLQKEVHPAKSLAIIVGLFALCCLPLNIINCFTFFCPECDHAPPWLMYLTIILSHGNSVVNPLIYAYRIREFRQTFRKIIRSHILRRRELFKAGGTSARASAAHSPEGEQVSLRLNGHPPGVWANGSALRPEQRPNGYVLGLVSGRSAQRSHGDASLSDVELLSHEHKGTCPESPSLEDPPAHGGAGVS
Description: (§1) Antagonist binding of N6-cyclohexyl-[3H]-adenosine to guinea pig brain

[8] = target: T2, Adenosine receptor A1 (Homo sapiens); assay: Affinity constant for inhibition of A1 receptor control of adenylate cyclase in adipocytes, heart and brain cells; Inactive; format: functional, cell-based
[9] = target: T3, Adenosine A2 receptor (Homo sapiens); assay: Affinity constant for A2 receptor control of adenylate cyclase in adipocytes, heart and brain cells; Inactive; format: functional, cell-based
[10] = target: T6, Adenosine receptor (Rattus norvegicus, UniProt P29276+P25099+P30543+P28647); format: functional
[11] = target: T6, Adenosine receptor; assay: Antagonist binding of rN6-cyclohexyl-[3H]adenosine to rat brain; format: functional
[12] = target: T6, Adenosine receptor
Description: Antagonist binding of L-N6-phenyl-isopropyl)-[3H]adenosine to rat fat

[13] = target: T5, Adenosine receptor A2a; assay: biochemical; remark: listed apart in the source
Description: as §1

Compound	Ki [1] [µM]	Affinity constant [2] [µM]	Affinity constant [3] [µM]	Affinity constant [4]	Ki [7] [µM]	other results
Cn1c(=O)c2c(ncn2C)n(C)c1=O [CAFFEINE]	130	30	30	inactive	–	–
Nc1nc(Cl)nc2c1ncn2[C@@H]1O[C@H](CO)[C@@H](O)[C@H]1O	0.025	0.01	–	–	0.008	Affinity constant [5]: inactive; Affinity constant [6]: 5 µM
OC[C@H]1O[C@@H](n2cnc3c(Nc4ccccc4)ncnc32)[C@H](O)[C@@H]1O	–	0.003	50	inactive	–	–
C[C@@H]1O[C@H](n2cnc3c(N)ncnc32)C[C@H]1O	–	–	–	2 µM	–	Affinity constant [8]: inactive; Affinity constant [9]: inactive
C[C@@H](Cc1ccccc1)Nc1ncnc2c1ncn2[C@@H]1O[C@H](CO)[C@@H](O)[C@H]1O [(S)-PIA]	0.008	0.2	100	inactive	0.13	–
CC(C)Cn1c(=O)n(C)c(=O)c2[nH]cnc21 [ISOBUTYLMETHYLXANTHINE]	7	–	–	–	8	–
CSC[C@H]1O[C@@H](n2cnc3c(N)ncnc32)[C@H](O)[C@@H]1O	–	–	10	–	–	–
CCNC(=O)[C@H]1O[C@@H](n2cnc3c(N)ncnc32)[C@H](O)[C@@H]1O	–	0.1	–	–	–	–
Cn1c(=O)c2[nH]c(-c3ccccc3)nc2n(C)c1=O [8-PHENYL THEOPHYLLINE]	–	–	–	–	0.4	–
Nc1ncnc2c1ncn2[C@@H]1O[C@H](C(=O)NC2CC2)[C@@H](O)[C@H]1O	–	–	–	–	0.008	–
CNc1ncnc2c1ncn2[C@@H]1O[C@H](CO)[C@@H](O)[C@H]1O	–	0.1	80	–	–	–
CC(C)Cn1c(=O)n(C)c(=O)c2nc[nH]c21 [ISOBUTYLMETHYLXANTHINE]	–	2	5	inactive	–	Ki [10]: 0.8 µM; Ki [11]: 3 µM; Ki [12]: 20 µM
OC[C@H]1O[C@@H](n2cnc3c(NC4CCCCC4)ncnc32)[C@H](O)[C@@H]1O	0.0025	0.003	30	inactive	–	–
OC[C@H]1O[C@@H](n2cnc3c(NCc4ccccc4)ncnc32)[C@H](O)[C@@H]1O	–	0.2	80	inactive	–	–
C[C@H](Cc1ccccc1)Nc1ncnc2c1ncn2[C@@H]1O[C@H](CO)[C@@H](O)[C@H]1O [(R)-PIA]	0.00025	0.003	30	inactive	–	Ki [13]: 0.0033 µM
